Data on 15 compounds can be found in ChEMBL document CHEMBL2074246, “Distinct groups of multidrug resistance modulating agents are distinguished by competition of P-glycoprotein-specific antibodies” (Biochem Biophys Res Commun, 2004).

What all share (format): functional, cell-based
Data set [1] addresses T1, ATP-dependent translocase ABCB1 (Homo sapiens, UniProt P08183). Briefly: TP_TRANSPORTER: increase in Calcein-AM intracellular accumulation (Calcein-AM: 0.5uM, Nifedipine:125uM) in MDR1-expressing NIH-3T3 cells. Particulars: mouse, nih3t3, 125 µM.
In data set [2] the target is T1, ATP-dependent translocase ABCB1. Briefly: TP_TRANSPORTER: increase in Calcein-AM intracellular accumulation (Calcein-AM: 0.5 uM, Prednisone: 200 uM) in MDR1-expressing NIH-3T3 cells. Particulars: mouse, nih3t3, 200 µM.
The target is the same in data set [3]. The experiment in a line: TP_TRANSPORTER: increase in Calcein-AM intracellular accumulation (Calcein-AM: 0.5 uM, Progesterone: 10 uM) in MDR1-expressing NIH-3T3 cells. Particulars: mouse, nih3t3, 10 µM.
Data set [4] has the same target. The experiment in a line: TP_TRANSPORTER: increase in Calcein-AM intracellular accumulation (Calcein-AM: 0.5 uM, Propranolol: 500 uM) in MDR1-expressing NIH-3T3 cells. Conditions: mouse, nih3t3, 500 µM.
The target is the same in data set [5]. Briefly: TP_TRANSPORTER: increase in Calcein-AM intracellular accumulation (Calcein-AM: 0.5 uM, Quinine: 20 uM) in MDR1-expressing NIH-3T3 cells. Particulars: mouse, nih3t3, 20 µM.
The target is the same in data set [6]. Briefly: TP_TRANSPORTER: increase in Calcein-AM intracellular accumulation (Calcein-AM: 0.5 uM, Reserpine: 40 uM) in MDR1-expressing NIH-3T3 cells. Particulars: mouse, nih3t3, 40 µM.
Data set [7] has the same target. Briefly: TP_TRANSPORTER: increase in Calcein-AM intracellular accumulation (Calcein-AM: 0.5 uM, Rapamycin: 20 uM) in MDR1-expressing NIH-3T3 cells. Conditions: mouse, nih3t3, 20 µM.
The target is the same in data set [8]. Briefly: TP_TRANSPORTER: increase in Calcein-AM intracellular accumulation (Calcein-AM: 0.5 uM, Tetracaine: 320 uM) in MDR1-expressing NIH-3T3 cells. Conditions: mouse, nih3t3, 320 µM.
Data set [9] shares this target. Briefly: TP_TRANSPORTER: increase in Calcein-AM intracellular accumulation (Calcein-AM: 0.5 uM, Trimipramine: 20 uM) in MDR1-expressing NIH-3T3 cells. Conditions: mouse, nih3t3, 20 µM.
For data set [10] the target is unchanged. The experiment in a line: TP_TRANSPORTER: increase in Calcein-AM intracellular accumulation (Calcein-AM: 0.5 uM, Tween 20: 1.4x10-3a%) in MDR1-expressing NIH-3T3 cells. Particulars: mouse, nih3t3.
Data set [11] has the same target. The experiment in a line: TP_TRANSPORTER: increase in Calcein-AM intracellular accumulation (Calcein-AM: 0.5 uM, Valinomycin: 10 uM) in MDR1-expressing NIH-3T3 cells. Conditions: mouse, nih3t3, 10 µM.
For data set [12] the target is unchanged. Briefly: TP_TRANSPORTER: increase in Calcein-AM intracellular accumulation (Calcein-AM: 0.5 uM, PSC-833: 8 uM) in MDR1-expressing NIH-3T3 cells. Particulars: mouse, nih3t3, 8 µM.
The target is the same in data set [13]. Briefly: TP_TRANSPORTER: increase in Calcein-AM intracellular accumulation (Calcein-AM: 0.5 uM, Vinblastine: 70 uM) in MDR1-expressing NIH-3T3 cells. Conditions: mouse, nih3t3, 70 µM.
Data set [14] shares this target. The experiment in a line: TP_TRANSPORTER: increase in Calcein-AM intracellular accumulation (Calcein-AM: 0.5 uM, o-Amsacrine: 5 uM) in MDR1-expressing NIH-3T3 cells. Particulars: mouse, nih3t3, 5 µM.
The target is the same in data set [15]. Briefly: TP_TRANSPORTER: increase in Calcein-AM intracellular accumulation (Calcein-AM: 0.5 uM, Ivermectin: 20 uM) in MDR1-expressing NIH-3T3 cells. Conditions: mouse, nih3t3, 20 µM.

T1 sequence (P08183 whole entry): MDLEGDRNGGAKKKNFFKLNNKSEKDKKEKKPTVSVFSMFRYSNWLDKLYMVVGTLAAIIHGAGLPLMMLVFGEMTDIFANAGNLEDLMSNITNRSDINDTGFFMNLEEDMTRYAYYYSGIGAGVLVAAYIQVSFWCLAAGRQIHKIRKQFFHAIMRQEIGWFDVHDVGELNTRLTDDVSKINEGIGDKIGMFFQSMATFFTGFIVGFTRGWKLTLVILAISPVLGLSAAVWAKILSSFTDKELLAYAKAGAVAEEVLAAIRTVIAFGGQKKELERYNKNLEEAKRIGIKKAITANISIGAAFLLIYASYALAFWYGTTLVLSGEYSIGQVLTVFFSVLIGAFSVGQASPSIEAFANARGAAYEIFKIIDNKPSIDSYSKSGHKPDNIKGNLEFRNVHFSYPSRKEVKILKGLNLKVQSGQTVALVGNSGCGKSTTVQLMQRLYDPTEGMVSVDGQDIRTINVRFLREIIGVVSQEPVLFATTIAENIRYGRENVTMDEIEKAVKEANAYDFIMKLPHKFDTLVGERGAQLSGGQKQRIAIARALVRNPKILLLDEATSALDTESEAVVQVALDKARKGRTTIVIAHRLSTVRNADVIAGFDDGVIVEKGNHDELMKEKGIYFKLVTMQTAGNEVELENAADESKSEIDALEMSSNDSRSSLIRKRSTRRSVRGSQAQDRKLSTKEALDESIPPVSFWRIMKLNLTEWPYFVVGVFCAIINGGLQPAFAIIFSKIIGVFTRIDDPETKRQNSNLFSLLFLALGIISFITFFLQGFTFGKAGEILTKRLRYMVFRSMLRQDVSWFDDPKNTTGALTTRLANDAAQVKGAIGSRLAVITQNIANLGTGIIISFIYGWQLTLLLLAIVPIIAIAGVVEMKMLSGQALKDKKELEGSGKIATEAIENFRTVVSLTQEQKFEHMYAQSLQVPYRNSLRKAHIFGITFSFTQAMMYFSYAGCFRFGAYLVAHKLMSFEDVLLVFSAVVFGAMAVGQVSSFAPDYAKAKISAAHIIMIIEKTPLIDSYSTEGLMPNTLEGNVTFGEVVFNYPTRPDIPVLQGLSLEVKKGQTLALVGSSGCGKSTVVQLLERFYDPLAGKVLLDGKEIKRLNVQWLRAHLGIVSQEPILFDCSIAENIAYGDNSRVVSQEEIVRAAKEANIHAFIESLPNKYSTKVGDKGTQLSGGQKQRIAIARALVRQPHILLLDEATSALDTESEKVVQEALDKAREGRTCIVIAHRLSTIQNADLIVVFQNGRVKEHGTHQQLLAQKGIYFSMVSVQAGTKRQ

With `COC(=O)C1=C(C)NC(C)=C(C(=O)OC)C1c1ccccc1[N+](=O)[O-]` [NIFEDIPINE], the Activity result in data set [1] is “inhibitor [+]”.
For the compound `C[C@]12C=CC(=O)C=C1CC[C@@H]1[C@@H]2C(=O)C[C@@]2(C)[C@H]1CC[C@]2(O)C(=O)CO` [PREDNISONE], the Activity entry in data set [2] was “inhibitor [+]”.
As for `CC(=O)[C@H]1CC[C@H]2[C@@H]3CCC4=CC(=O)CC[C@]4(C)[C@H]3CC[C@]12C` [PROGESTERONE], in [3], the Activity result is “inhibitor [+]”.
Regarding `CC(C)NCC(O)COc1cccc2ccccc12` (stereo not given) [PROPRANOLOL], the Activity entry in data set [4] is “inhibitor [+]”.
For `C=C[C@H]1C[N@@]2CC[C@H]1C[C@H]2[C@H](O)c1ccnc2ccc(OC)cc12` [QUININE], the Activity entry in data set [5] was “inhibitor [+]”.
Regarding `COC(=O)[C@H]1[C@H]2C[C@@H]3c4[nH]c5cc(OC)ccc5c4CCN3C[C@H]2C[C@@H](OC(=O)c2cc(OC)c(OC)c(OC)c2)[C@@H]1OC` [RESERPINE], in data set [6], the Activity entry is “inhibitor [+]”.
As for `CO[C@H]1C[C@@H]2CC[C@@H](C)[C@@](O)(O2)C(=O)C(=O)N2CCCC[C@H]2C(=O)O[C@H]([C@H](C)C[C@@H]2CC[C@@H](O)[C@H](OC)C2)CC(=O)[C@H](C)/C=C(\C)[C@@H](O)[C@@H](OC)C(=O)[C@H](C)C[C@H](C)/C=C/C=C/C=C/1C` [SIROLIMUS], in data set [7], the Activity entry is “inhibitor [+]”.
For `CCCCNc1ccc(C(=O)OCCN(C)C)cc1` [TETRACAINE], the Activity entry in data set [8] is “inhibitor [+]”.
As to `CC(CN(C)C)CN1c2ccccc2CCc2ccccc21` (stereo not given) [TRIMIPRAMINE], the Activity entry in data set [9] is “inhibitor [+]”.
As to `CCCCCCCCCCCC(=O)OCCOCCOCCOCCOCCOCCOCCOCCOCCOCCOCCOCCOCCOCCOCCOCCOCCOCCOCCOCCOCC(OCCOCCOCCOCCOCCOCCOCCOCCOCCOCCOCCOCCOCCOCCOCCOCCOCCOCCOCCOCCO)C1OCC(OCCOCCOCCOCCOCCOCCOCCOCCOCCOCCOCCOCCOCCOCCOCCOCCOCCOCCOCCOCCO)C1OCCOCCOCCOCCOCCOCCOCCOCCOCCOCCOCCOCCOCCOCCOCCOCCOCCOCCOCCOCCO` (stereo not given) [TWEEN 20], in data set [10], the Activity entry was “inhibitor [+]”.
Consider `CC(C)[C@@H]1NC(=O)[C@H](C)OC(=O)[C@@H](C(C)C)NC(=O)[C@@H](C(C)C)OC(=O)[C@H](C(C)C)NC(=O)[C@H](C)OC(=O)[C@@H](C(C)C)NC(=O)[C@@H](C(C)C)OC(=O)[C@H](C(C)C)NC(=O)[C@H](C)OC(=O)[C@@H](C(C)C)NC(=O)[C@@H](C(C)C)OC1=O` [VALINOMYCIN], for which the Activity result in data set [11] is “inhibitor [+]”.
For `C/C=C/C[C@@H](C)C(=O)[C@H]1C(=O)N[C@@H](C(C)C)C(=O)N(C)CC(=O)N(C)[C@@H](CC(C)C)C(=O)N[C@@H](C(C)C)C(=O)N(C)[C@@H](CC(C)C)C(=O)N[C@@H](C)C(=O)N[C@H](C)C(=O)N(C)[C@@H](CC(C)C)C(=O)N(C)[C@@H](CC(C)C)C(=O)N(C)[C@@H](C(C)C)C(=O)N1C` [VALSPODAR], the Activity entry in data set [12] is “inhibitor [+]”.
Turning to `CC[C@]1(O)C[C@@H]2CN(CCc3c([nH]c4ccccc34)[C@@](C(=O)OC)(c3cc4c(cc3OC)N(C)[C@H]3[C@@](O)(C(=O)OC)[C@H](OC(C)=O)[C@]5(CC)C=CCN6CC[C@]43[C@@H]65)C2)C1` [VINBLASTINE], the Activity result in [13] was “inhibitor [+]”.
Consider `COc1cc(Nc2c3ccccc3nc3ccccc23)ccc1NS(C)(=O)=O` [o-Amsacrine], for which the Activity result in data set [14] was “inhibitor [+]”.
Take IVERMECTIN: the Activity result in data set [15] was “inhibitor [+]”.
